Test results: ChEMBL document CHEMBL1135288, “Anthranilate sulfonamide hydroxamate TACE inhibitors. Part 1: Structure-based design of novel acetylenic P1' groups” (Bioorg Med Chem Lett, 2002)

Legend:
[1] = target: T1, Interstitial collagenase (Homo sapiens, UniProt P03956); assay: Inhibition of Matrix metalloprotease-1
T1 sequence (P03956 whole entry): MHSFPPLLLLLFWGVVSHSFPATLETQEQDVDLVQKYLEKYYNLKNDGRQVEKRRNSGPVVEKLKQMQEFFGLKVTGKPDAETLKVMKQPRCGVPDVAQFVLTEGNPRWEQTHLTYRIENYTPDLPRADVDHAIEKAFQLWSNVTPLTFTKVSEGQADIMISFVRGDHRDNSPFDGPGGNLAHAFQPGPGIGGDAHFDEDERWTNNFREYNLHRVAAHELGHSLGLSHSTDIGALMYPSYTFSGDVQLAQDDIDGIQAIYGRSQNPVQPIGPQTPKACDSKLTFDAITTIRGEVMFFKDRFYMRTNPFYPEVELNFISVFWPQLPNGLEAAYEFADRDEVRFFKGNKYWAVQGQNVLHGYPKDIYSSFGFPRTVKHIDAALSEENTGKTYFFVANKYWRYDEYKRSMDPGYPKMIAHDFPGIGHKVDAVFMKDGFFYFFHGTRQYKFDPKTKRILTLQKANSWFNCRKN

[2] = target: Matrix metalloproteinase-9 (Homo sapiens, UniProt P14780); assay: Inhibition of Matrix metalloprotease-9
Sequence of Matrix metalloproteinase-9 (P14780 whole entry): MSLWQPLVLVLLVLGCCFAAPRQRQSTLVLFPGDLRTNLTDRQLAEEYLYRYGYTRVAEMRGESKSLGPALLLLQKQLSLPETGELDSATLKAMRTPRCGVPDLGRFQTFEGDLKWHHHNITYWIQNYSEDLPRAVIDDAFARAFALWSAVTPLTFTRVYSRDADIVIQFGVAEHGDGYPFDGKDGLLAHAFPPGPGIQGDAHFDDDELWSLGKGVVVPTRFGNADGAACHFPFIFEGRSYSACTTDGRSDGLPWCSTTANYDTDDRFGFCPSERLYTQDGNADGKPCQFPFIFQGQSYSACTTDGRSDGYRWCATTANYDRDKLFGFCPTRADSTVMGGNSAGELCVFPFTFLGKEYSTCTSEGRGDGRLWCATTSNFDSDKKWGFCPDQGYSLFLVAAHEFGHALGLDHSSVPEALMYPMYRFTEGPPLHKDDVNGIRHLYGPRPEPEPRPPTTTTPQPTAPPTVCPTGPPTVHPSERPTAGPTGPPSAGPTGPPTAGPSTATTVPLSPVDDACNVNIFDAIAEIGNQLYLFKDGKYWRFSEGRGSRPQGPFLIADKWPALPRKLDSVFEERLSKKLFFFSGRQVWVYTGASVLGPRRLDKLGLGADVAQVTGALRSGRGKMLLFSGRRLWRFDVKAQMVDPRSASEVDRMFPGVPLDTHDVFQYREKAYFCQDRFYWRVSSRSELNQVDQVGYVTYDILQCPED

[3] = target: Collagenase 3 (Homo sapiens, UniProt P45452); assay: Inhibition of Matrix metalloprotease-13
[4] = target: Disintegrin and metalloproteinase domain-containing protein 17 (Sus scrofa, UniProt O77636); assay: Inhibition of porcine Tumor necrosis factor alpha converting enzyme
Sequence of Disintegrin and metalloproteinase domain-containing protein 17 (O77636 whole entry, the tested form may be a part): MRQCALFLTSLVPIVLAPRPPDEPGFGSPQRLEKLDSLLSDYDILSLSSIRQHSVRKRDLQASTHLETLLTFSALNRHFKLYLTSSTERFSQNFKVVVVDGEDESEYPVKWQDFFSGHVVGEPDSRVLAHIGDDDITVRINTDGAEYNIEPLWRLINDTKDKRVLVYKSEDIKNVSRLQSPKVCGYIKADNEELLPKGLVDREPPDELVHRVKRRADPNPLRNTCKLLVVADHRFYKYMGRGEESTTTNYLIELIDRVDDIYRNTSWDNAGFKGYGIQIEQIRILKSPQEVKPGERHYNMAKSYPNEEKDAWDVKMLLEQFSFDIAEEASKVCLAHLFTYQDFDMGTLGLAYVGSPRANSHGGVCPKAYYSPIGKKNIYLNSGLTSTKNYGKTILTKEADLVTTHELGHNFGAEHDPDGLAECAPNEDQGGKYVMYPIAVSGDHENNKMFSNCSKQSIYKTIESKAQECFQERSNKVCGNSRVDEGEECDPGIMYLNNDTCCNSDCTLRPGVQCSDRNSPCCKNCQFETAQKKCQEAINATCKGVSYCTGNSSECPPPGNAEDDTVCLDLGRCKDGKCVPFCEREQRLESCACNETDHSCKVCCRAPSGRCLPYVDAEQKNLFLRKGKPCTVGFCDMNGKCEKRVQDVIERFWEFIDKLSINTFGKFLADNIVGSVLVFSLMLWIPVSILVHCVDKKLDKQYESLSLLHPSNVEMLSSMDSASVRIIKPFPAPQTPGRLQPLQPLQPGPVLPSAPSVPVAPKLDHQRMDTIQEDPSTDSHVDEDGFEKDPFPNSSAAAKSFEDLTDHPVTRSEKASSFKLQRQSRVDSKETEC

[5] = target: T2, Interstitial collagenase (Homo sapiens) (UniProt P03956); assay: Inhibition of Matrix metalloprotease-1 at 10 uM
T2 sequence (whole entry): T1 sequence (P03956 whole entry)

Row | IC50 [1] [nM] | IC50 [2] [nM] | IC50 [3] [nM] | inhibition [5] [%] | SMILES | IC50 [4] [nM]
1 | 2490 | 21 | 68 |  | CCCCOc1ccc(S(=O)(=O)N(C)c2c(C)cc(Br)cc2C(=O)NO)cc1 | 67
2 |  |  |  |  | C#CCOc1ccc(S(=O)(=O)N(C)c2c(C)cc(Br)cc2C(=O)NO)cc1 | 11
3 |  |  |  | 53 | CCCCC#CCOc1ccc(S(=O)(=O)N(C)c2c(C)cc(Br)cc2C(=O)NO)cc1 | 
